Measurements published in patent US6156789A, “Method for treating abnormal cell proliferation in the brain” (Rhone-Poulenc Rorer S.A., priority 1998, dated 2000).
Where “and” joins values, the source holds several entries; their conditions need not be identical. Identical values can stand only once. Like-named read-outs stand apart in the source and are kept apart here.

Experiment: Tissue distribution of Compound A in mice with mammary C/16 adenocarcinomas (first method: liver, heart, kidney, lung, spleen, tumor)
Type: in vivo, C3H/HeN female mice
Parameters: key to Percentage of Compound A (of dose) in Liver / Percentage of Compound A (of dose) in Heart / Percentage of Compound A (of dose) in Kidney / Percentage of Compound A (of dose) in Lung / Percentage of Compound A (of dose) in Spleen / Percentage of Compound A (of dose) in Tumor: --: not detected
Settings: for Kp at 0.5 h: 0.50 h
Experimental: Mammary C/16 adenocarcinomas were implanted in C3H/HeN female mice. At least 7 days later, 4α,10β-diacetoxy-2α-benzoyloxy-5β,20-epoxy-1β-hydroxy-7β,8β-methylene-9-oxo-19-nor-11-taxen-13α-yl (2R,3S)-3-tert-butoxycarbonylamino-2-hydroxy-3-phenylpropionate ("Compound A") was administered to groups of female mice at doses of 9.5, 15.4, 24.8, 40 or 60.5 mg/kg by intravenous injection under 0.4 or 0.5 ml/injection over 15 seconds. The body weight and date of implantation were recorded for each mouse. Blood and tissue samples were taken 2, 5, 15, 30 and 45 minutes and 1, 4, 14, 24 and 48 hours, after administration. The plasma was separated from the blood samples at 4° C. and frozen immediately. The tissue and tumors were weighed and frozen immediately (-20° C.).
The plasma and tissue samples were then analyzed for the concentration of Compound A. The plasma was assayed by high pressure liquid chromatography with spectrophotometric detection. For the tissue, liver, heart, kidney, lung, spleen and tumor tissue, samples were assayed by a first method, while a second method was used for the brain tissue analyzed. In the first method, 0.2 g of tissue was combined with 2 ml of sodium phosphate buffer 0.1 M (pH:7) and homogenized. The homogenate was centrifuged and 0.5 ml of supernatant was injected into the chromatographic column. In the second method, 10 μl of standard solution was combined with 0.2 g of brain tissue. 2 ml of methanol/5% perchloric acid (50/50) were added and the mixture was homogenized. The homogenate was centrifuged and 100 μl of supernatant was injected into the chromatographic column.

[1] = 0.033 h, 40 μg/kg [sic], mice with tumors, single mice, 40 mg/kg, 1.98 min
[2] = mouse, heart/plasma, iv, 40 mg/kg, mice with tumors, single mice, read-out: Tissue/Plasma Ratio, HEART
[3] = mouse, kidney/plasma, iv, 40 mg/kg, 40 μg/kg [sic], mice with tumors, single mice, read-out: Tissue/Plasma Ratio, KIDNEY

CC(=O)O[C@H]1C(=O)[C@]23C[C@H]2C[C@H]2OC[C@@]2(OC(C)=O)[C@H]3[C@H](OC(=O)c2ccccc2)[C@]2(O)C[C@H](OC(=O)[C@H](O)[C@@H](NC(=O)OC(C)(C)C)c3ccccc3)C(C)=C1C2(C)C [Compound A, 4α,10β-diacetoxy-2α-benzoyloxy-5β,20-epoxy-1β-hydroxy-7β,8β-methylene-9-oxo-19-nor-11-taxen-13α-yl (2R,3S)-3-tert-butoxycarbonylamino-2-hydroxy-3-phenylpropionate]
distribution in tissues sampled (40 mg/kg i.v.): quickly distributed in all tissues sampled | percentage (concentration) in sampled tissue over time (40 mg/kg i.v., first few hours, except tumor and brain tissue): fell off rapidly over the first few hours following drug administration, except in the tumor and brain tissue | uptake of the drug (40 mg/kg i.v., mice with mammary carcinoma): fast uptake of the drug | drug present at 0.033 h cleared in one hour (40 mg/kg i.v., rapid phase, except tumor and brain tissue): 70% | Tissue/Plasma Ratio, KIDNEY [1]: 1.25 and 1.20 | Tissue/Plasma Ratio, LIVER [1]: 0.91 | Tissue/Plasma Ratio, SPLEEN [1]: 0.42 and 0.43 and 0.41 | Percentage of Compound A (of dose) in Heart (0.033 h, 40 mg/kg): 0.46% | Percentage of Compound A (of dose) in Kidney (0.033 h, 40 mg/kg): 2.06% | Percentage of Compound A (of dose) in Liver (0.033 h, 40 mg/kg): 9.73% | Percentage of Compound A (of dose) in Lung (0.033 h, 40 mg/kg): 0.67% | Percentage of Compound A (of dose) in Spleen (0.033 h, 40 mg/kg): 0.27% | Percentage of Compound A (of dose) in Tumor (0.033 h, 40 mg/kg): 1.07% | Percentage of Compound A (of dose) in tissues, Total (0.033 h, 40 mg/kg): 14.45% | Tissue/Plasma Ratio, LUNG (0.083 h, 40 μg/kg [sic], mice with tumors, single mice, 40 mg/kg, 4.98 min): 0.69 | Percentage of Compound A (of dose) in Heart (1 h, 40 mg/kg): 0.08% | Percentage of Compound A (of dose) in Kidney (1 h, 40 mg/kg): 0.56% | Percentage of Compound A (of dose) in Liver (1 h, 40 mg/kg): 2.10% | Percentage of Compound A (of dose) in Lung (1 h, 40 mg/kg): 0.18% | Percentage of Compound A (of dose) in Spleen (1 h, 40 mg/kg): 0.10% | Percentage of Compound A (of dose) in Tumor (1 h, 40 mg/kg): 0.94% | Percentage of Compound A (of dose) in tissues, Total (1 h, 40 mg/kg): 4.37% | Percentage of Compound A (of dose) in Heart (4 h, 40 mg/kg): 0.03% | Percentage of Compound A (of dose) in Kidney (4 h, 40 mg/kg): 0.23% | Percentage of Compound A (of dose) in Liver (4 h, 40 mg/kg): 0.47% | Percentage of Compound A (of dose) in Lung (4 h, 40 mg/kg): 0.08% | Percentage of Compound A (of dose) in Spleen (4 h, 40 mg/kg): 0.05% | Percentage of Compound A (of dose) in Tumor (4 h, 40 mg/kg): 0.37% | Percentage of Compound A (of dose) in tissues, Total (4 h, 40 mg/kg): 1.62% | Percentage of Compound A (of dose) in Heart (24 h, 40 mg/kg): -- | Percentage of Compound A (of dose) in Kidney (24 h, 40 mg/kg): -- | Percentage of Compound A (of dose) in Liver (24 h, 40 mg/kg): -- | Percentage of Compound A (of dose) in Lung (24 h, 40 mg/kg): -- | Percentage of Compound A (of dose) in Spleen (24 h, 40 mg/kg): -- | Percentage of Compound A (of dose) in Tumor (24 h, 40 mg/kg): 0.09% | Percentage of Compound A (of dose) in tissues, Total (24 h, 40 mg/kg): 0.42% | Percentage of Compound A (of dose) in Heart (48 h, 40 mg/kg): -- | Percentage of Compound A (of dose) in Kidney (48 h, 40 mg/kg): -- | Percentage of Compound A (of dose) in Liver (48 h, 40 mg/kg): -- | Percentage of Compound A (of dose) in Lung (48 h, 40 mg/kg): -- | Percentage of Compound A (of dose) in Spleen (48 h, 40 mg/kg): -- | Percentage of Compound A (of dose) in Tumor (48 h, 40 mg/kg): -- | Percentage of Compound A (of dose) in tissues, Total (48 h, 40 mg/kg): 0.19% | AUC 0-4 Hours, Heart (dose = 40 mg/kg): 24.8 µg·h/g | AUC 0-4 Hours, Kidney (dose = 40 mg/kg): 74.4 µg·h/g | AUC 0-4 Hours, Liver (dose = 40 mg/kg): 70.8 µg·h/g | AUC 0-4 Hours, Lung (dose = 40 mg/kg): 34.3 µg·h/g | AUC 0-4 Hours, Spleen (dose = 40 mg/kg): 34.6 µg·h/g | AUC 0-4 Hours, Tumor (dose = 40 mg/kg): 35.6 µg·h/g | AUC 0 to Infinity, Heart (dose = 40 mg/kg): 28 µg·h/g | AUC 0 to Infinity, Kidney (dose = 40 mg/kg): 121 µg·h/g | AUC 0 to Infinity, Liver (dose = 40 mg/kg): 93 µg·h/g | AUC 0 to Infinity, Lung (dose = 40 mg/kg): 52 µg·h/g | AUC 0 to Infinity, Spleen (dose = 40 mg/kg): 80 µg·h/g | AUC 0 to Infinity, Tumor (dose = 40 mg/kg): 107 µg·h/g | half-life (mouse, heart, iv, 40 mg/kg, read-out: t 1/2, Heart (converted)): 96 min | Tmax (mouse, heart, iv, 40 mg/kg i.v., read-out: time of maximum concentration, heart): 1.98 min | Kp at 0.033 h (mouse, heart/plasma, iv, 40 mg/kg, 0.033 h, mice with tumors, single mice, read-out: Tissue/Plasma Ratio, HEART): 0.45 | Kp at 0.083 h (mouse, heart/plasma, iv, 40 mg/kg, 0.083 h, mice with tumors, single mice, read-out: Tissue/Plasma Ratio, HEART): 0.98 | Kp at 0.25 h [2]: 0.65 | Kp at 0.5 h [2]: 0.88 | Kp at 0.75 h [2]: 0.87 | Kp at 1 h (mouse, heart/plasma, iv, 40 mg/kg, 1 h, mice with tumors, single mice, read-out: Tissue/Plasma Ratio, HEART): 0.77 | half-life (mouse, kidney, iv, 40 mg/kg, 40 mg/kg i.v., read-out: half-life of the distribution phase, kidney (converted)): 3 min | half-life (mouse, kidney, iv, 40 mg/kg, read-out: t 1/2, Kidney (converted)): 162 min | Tmax (mouse, kidney, iv, 40 mg/kg i.v., read-out: time of maximum concentration, kidney): 1.98 min | Kp at 0.033 h (mouse, kidney/plasma, iv, 40 mg/kg, 0.033 h, 40 μg/kg [sic], mice with tumors, single mice, read-out: Tissue/Plasma Ratio, KIDNEY): 1.7 | Kp at 0.083 h (mouse, kidney/plasma, iv, 40 mg/kg, 0.083 h, 40 μg/kg [sic], mice with tumors, single mice, read-out: Tissue/Plasma Ratio, KIDNEY): 2.4 | Kp at 0.25 h [3]: 1.35 | Kp at 0.5 h [3]: 1.88 | Kp at 0.75 h [3]: 2.44
